Measurements taken from patent US8623909B2, “Prophylactic/therapeutic agents for lifestyle-related diseases” (priority 2008, dated 2014).

Assays:
PSA promoter = assay: PSA promoter-luciferase activity in LNCaP cells (dual-luciferase reporter); format: cell-based, human; conditions: 10^−5M, 24 hours, control (DMSO) 1.0
Method: Plasmid pCMV-hAR was constructed based on a method previously reported by the inventors of the present invention (J. Biol. Chem., 282, 7329-7338). In addition, reporter plasmids consisting of PGL3-PSA (human) and PGL3-UCP-1 (mouse) were also constructed based on a method previously reported by the inventors of the present invention (Diabetes, 54, 1000-1008). Furthermore, pRL-SV40 was acquired commercially.
NIH-3T30-L1 mouse preadipocytes were cultured in Dulbecco's modified Eagle's medium (Sera Laboratories) containing 10% fetal calf serum. In addition, cells of human prostate cancer cell line LNCap were cultured in RPMI 1640 medium (Sigma) containing 10% fetal calf serum. Furthermore, these two types of cell lines were obtained from the American Type Culture Collection (Manassas).
The NIH-3T3-L1 cells of 2) above were co-transfected with pCMV-hAR, pRL-SV40 and PGL3-UCP-1 (mouse) in a 24-well plate using an Effectene Transfection Kit (Qiagen) and a Fugene HD Kit (Roche Diagnostics). In addition, the LNCaP cells of 2) above were similarly co-transfected with pCMV-hAR, pRL-SV40 and PGL3-PSA (human).
4) Measurement of Effect on PSA Promoter-Luciferase Activity in LNCaP Cells
The LNCaP cells co-transfected in 3) above were cultured for 24 hours in DMEM or RPMI 1640 containing 10% fetal calf serum treated with dextran-charcoal and a test compound (dissolved in a small amount of DMSO) 24 hours after transfection. Subsequently, the activities of firefly luciferase and Renilla luciferase were assayed in a 24-well plate using the Dual-Luciferase Reporter Assay System (Promega) in accordance with the protocol of Minilumat LB9507 (Berthold Technologies). Furthermore, the value of firefly luciferase activity were normalized based on the internal Renilla control, and were presented as relative luciferase activity.

PSA mRNA in LNCaP cells = assay: PSA mRNA expression level in LNCaP cells (real-time PCR); format: cell-based, human; conditions: 10^−5M, 24 hours, control (DMSO) 1.0
Method: (§1) 1) Extraction of Total RNA
(§2) After respectively culturing the LNCaP cells and NIH-3T3-L1 cells co-transfected in 1) to 3) above in 6-well plates, the cells were cultured for 24 hours in EMEM or RPMI 1640 containing 10% fetal calf serum treated with dextran-charcoal and a test compound (dissolved in a small amount of DMSO). Subsequently, total RNA was respectively extracted using Isogen (Wako Pure Chemical Industries).
(§3) 5 μg aliquots of each total RNA obtained in 1) above were reverse-transcribed to first strand cDNA using a Superscript III Kit (Invitrogen) and brought to a final volume of 20 μL. Real-time PCR was carried out using LightCycler FastStart DNA Master SYBR Green I (Roche Diagnostic) in order to quantify expression of PSA mRNA in LNCaP cells and UCP-1 mRNA in NIH-3T3-L1 cells. PCR was carried out under the following conditions in 20 μL of reaction mixture: 50 cycles consisting of denaturing for 3 seconds at 95° C., annealing for 10 seconds at 60° C. and elongating for 25 seconds at 72° C. β-actin mRNA was also simultaneously amplified for use as an internal standard. Real-time PCR value for each transcription product were calculated as a relative ratio to β-actin.

[1] = tested on: UCP-1 mRNA in NIH-3T3-L1 cells; assay: UCP-1 mRNA expression level in NIH-3T3-L1 cells (real-time PCR); format: cell-based, mouse; conditions: 10^−5M, 24 hours, control (DMSO) 1.0
Method: as §1, §2, §3

AR = target: T1, AR (Homo sapiens, UniProt P10275); conditions: previous studies of the inventors; cited from earlier work
T1 sequence (P10275 1-920): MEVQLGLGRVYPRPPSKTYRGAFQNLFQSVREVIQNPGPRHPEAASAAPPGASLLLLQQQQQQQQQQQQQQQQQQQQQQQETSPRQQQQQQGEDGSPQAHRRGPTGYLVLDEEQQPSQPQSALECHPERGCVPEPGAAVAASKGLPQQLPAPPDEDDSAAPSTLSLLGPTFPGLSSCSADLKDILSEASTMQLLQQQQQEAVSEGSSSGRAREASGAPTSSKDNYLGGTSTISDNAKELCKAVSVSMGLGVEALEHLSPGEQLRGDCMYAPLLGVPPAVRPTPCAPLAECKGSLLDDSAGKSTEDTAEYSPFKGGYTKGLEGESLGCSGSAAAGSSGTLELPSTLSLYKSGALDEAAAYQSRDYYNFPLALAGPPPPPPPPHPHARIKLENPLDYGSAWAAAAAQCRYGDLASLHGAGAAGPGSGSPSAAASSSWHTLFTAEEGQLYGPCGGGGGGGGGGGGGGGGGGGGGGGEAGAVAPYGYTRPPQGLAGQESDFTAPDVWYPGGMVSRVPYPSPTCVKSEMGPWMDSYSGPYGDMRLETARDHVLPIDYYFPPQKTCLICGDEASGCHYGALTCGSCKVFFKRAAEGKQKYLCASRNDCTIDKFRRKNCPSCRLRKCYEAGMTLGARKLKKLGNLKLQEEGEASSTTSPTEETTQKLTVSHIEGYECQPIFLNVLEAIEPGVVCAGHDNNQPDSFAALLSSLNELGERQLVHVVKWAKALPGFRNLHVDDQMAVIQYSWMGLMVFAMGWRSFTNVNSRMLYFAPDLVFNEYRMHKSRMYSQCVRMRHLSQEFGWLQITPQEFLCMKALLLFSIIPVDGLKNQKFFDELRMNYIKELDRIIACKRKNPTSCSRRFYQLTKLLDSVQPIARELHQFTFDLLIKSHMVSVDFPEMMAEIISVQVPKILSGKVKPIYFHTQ

Row | Compound | Value of luciferase transcription activity (PSA promoter, relative luciferase activity) (PSA promoter) | PSA mRNA (relative ratio to β-actin mRNA) (PSA mRNA in LNCaP cells) | UCP-1 mRNA (relative ratio to β-actin mRNA) [1] | Formation of subnuclear AR foci (dots) (in words) (AR)
1 | CO[C@H]1CC[C@@]2(C)C(=CCC3C4CCOC[C@@]4(C)CCC32)C1 (stereo partly drawn) [Compound of formula (IIIa), 16a-homo-16a-oxestra-5-ene-3β-methoxide] | 0.8 | 0.8 | 1.8 | 
2 | CC(=O)O[C@H]1CC[C@]2(C)C3CC[C@]45C(=O)O[C@H](C)[C@H]4CCC5C3CC[C@H]2C1 (stereo partly shown) [Compound of formula (IIa)] | 0.8 | 0.9 | 1.4 | 
3 | CC(C)(O)C(=O)Nc1ccc([N+](=O)[O-])c(C(F)(F)F)c1 [hydroxyflutamide] |  |  |  | do not form foci (dots)
